In publication PMC9246766 (Pharmaceutical research, 2022):
Where two headings read alike, the source gives them in different places.

Assays:
[1] = target: T1, OCT3 (Homo sapiens, UniProt O75751); experiment: IC50 determination against OCT3-mediated ASP+ uptake in HEK-293 cells overexpressing OCT3; format: cell-based
T1 sequence (O75751 1-556): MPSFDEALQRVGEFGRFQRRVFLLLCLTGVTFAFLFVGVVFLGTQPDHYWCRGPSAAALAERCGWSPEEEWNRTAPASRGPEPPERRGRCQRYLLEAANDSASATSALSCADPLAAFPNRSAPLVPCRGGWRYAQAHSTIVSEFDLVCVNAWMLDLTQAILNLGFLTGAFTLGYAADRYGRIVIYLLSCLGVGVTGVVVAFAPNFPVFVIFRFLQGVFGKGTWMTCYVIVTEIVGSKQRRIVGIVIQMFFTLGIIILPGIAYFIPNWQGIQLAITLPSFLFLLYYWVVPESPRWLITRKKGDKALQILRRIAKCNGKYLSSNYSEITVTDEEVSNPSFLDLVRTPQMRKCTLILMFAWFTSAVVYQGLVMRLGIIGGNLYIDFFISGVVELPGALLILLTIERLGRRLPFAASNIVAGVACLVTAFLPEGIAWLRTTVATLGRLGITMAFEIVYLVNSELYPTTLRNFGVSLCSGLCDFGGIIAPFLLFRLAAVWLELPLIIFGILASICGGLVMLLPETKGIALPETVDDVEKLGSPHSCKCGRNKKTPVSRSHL

[2] = target: T1, OCT3; experiment: IC50 determination against OCT3-mediated [14C]metformin uptake in HEK-293 cells overexpressing OCT3; format: cell-based
[3] = target: T1, OCT3; experiment: High throughput screen: inhibition of OCT3-mediated ASP+ uptake in HEK-293 cells stably expressing OCT3; format: cell-based; conditions: for inhibition at 20 µM: HEK293
[4] = target: T1, OCT3; experiment: Predicted DDI potential: ratio of plasma CMAX (total or unbound) to predicted OCT3 IC50; conditions: unbound plasma CMAX over predicted OCT3 IC50
[5] = plasma protein binding used for unbound CMAX; source not given; cited from earlier work
[6] = total maximum plasma concentration; ref http://www.micromedexsolutions.com/; cited from earlier work
[7] = cited from earlier work; for FDA product insert: warnings, precautions and major adverse reactions: cardiovascular / CNS related, ref FDA product insert; for Neurological side effects: stated in discussion, ref Table SII, 60; for Neurological Effects (from Literature): ref Pubmed ID of Table SII

IC50 [1] | inhibition at 20 µM [3] | Compound | IC50 [3] | Protein binding [5] | Cmax [6] | FDA product insert: warnings, precautions and major adverse reactions [7] | other results
14.5 µM | – | N=C(N)NC(=O)c1nc(Cl)c(N)nc1N [amiloride] | – | – | – | – | IC50 [2]: 3 µM
– | 66.9% | CC1(C)S[C@@H]2[C@H](NC(=O)[C@H](NC(=O)N3CCNC3=O)c3ccccc3)C(=O)N2[C@H]1C(=O)O [azlocillin] | 9.9 µM | 30% | 17300 nM | – | Unbound CMAX/IC50 [4]: 1.23
19.7 µM | – | COc1ccccc1OCCNCC(O)COc1cccc2[nH]c3ccccc3c12 (stereo not shown) [carvedilol] | – | – | – | – | –
3.7 µM | – | [H]/N=C(\N/C(=N/[H])NCCCCCCNC(=N)NC(=N)Nc1ccc(Cl)cc1)Nc1ccc(Cl)cc1 [chlorhexidine] | – | – | – | – | IC50 [2]: 0.4 µM
177 µM | – | CNCCCN1c2ccccc2CCc2ccccc21 [desipramine] | – | – | – | – | inhibition at 20 µM ([1]; HEK293, read-out: Inhibition of OCT3 activity at 20 μM): < 50%
5.6 µM | – | COc1cc2nc(N3CCN(C(=O)C4COc5ccccc5O4)CC3)nc(N)c2cc1OC (stereo not shown) [doxazosin] | – | – | – | – | –
– | 60.6% | O=C(O)c1ccccc1Nc1cccc(C(F)(F)F)c1 [flufenamic acid] | 13 µM | 90% | 24200 nM | – | Unbound CMAX/IC50 [4]: 0.19
3.2 µM | – | N=C(N)N/N=C/c1c(Cl)cccc1Cl [guanabenz] | – | – | – | – | IC50 [2]: 1.1 µM
– | – | Cc1ccc(NC(=O)c2ccc(CN3CCN(C)CC3)cc2)cc1Nc1nccc(-c2cccnc2)n1 [imatinib] | – | – | 1200 nM | – | –
– | 87.2% | Cc1c(OCC(F)(F)F)ccnc1C[S+]([O-])c1nc2ccccc2[nH]1 (stereo not shown) [lansoprazole] | < 5 µM | 97% | 2900 nM | No warnings and precautions regarding to cardiovascular, CNS | Neurological Effects (from Literature) [7]: Increase the risk of dementia
– | 50.5% | Cc1oncc1C(=O)Nc1ccc(C(F)(F)F)cc1 [leflunomide] | 19.6 µM | 99.3% | 233000 nM | No warnings and precautions regarding to cardiovascular, CNS | –
– | 65% | C[C@@H](O)[C@H]1C(=O)N2C(C(=O)O)=C(S[C@@H]3CN[C@H](C(=O)N(C)C)C3)[C@H](C)[C@H]12 [meropenem] | 10.8 µM | – | 256000 nM | Warnings and precautions: Seizures and other adverse CNS experiences have been reported during treatment. | Unbound CMAX/IC50 [4]: 23.3; Neurological side effects [7]: neurological side effects
2.4 µM | 74% | CCCNCC(O)COc1ccccc1C(=O)CCc1ccccc1 (stereo not shown) [propafenone] | 7 µM | – | – | – | –
– | 87.3% | COCCCOc1ccnc(C[S+]([O-])c2nc3ccccc3[nH]2)c1C (stereo not shown) [rabeprazole] | < 5 µM | 96% | 1300 nM | No warnings and precautions regarding to cardiovascular, CNS | –
– | 82.8% | CC(=O)S[C@@H]1CC2=CC(=O)CC[C@]2(C)[C@H]2CC[C@@]3(C)[C@@H](CC[C@@]34CCC(=O)O4)[C@H]12 [spironolactone] | < 5 µM | 93% | 1100 nM | No warnings and precautions regarding to cardiovascular, CNS | Neurological Effects (from Literature) [7]: Neurotoxicity, lipophilic and cross the blood brain barrier
12 µM | 81.6% | CCCc1nc2c(C)cc(-c3nc4ccccc4n3C)cc2n1Cc1ccc(-c2ccccc2C(=O)O)cc1 [telmisartan] | – | 99.5% | 2800 nM | No warnings and precautions regarding to cardiovascular, CNS | IC50 [2]: 3.9 µM; Neurological Effects (from Literature) [7]: Neuroprotective effect, across bbb
– | – | COc1cc(Cc2cnc(N)nc2N)cc(OC)c1OC [trimethoprim] | – | – | 5900 nM | warnings and precautions related to cardiovascular side-effects | FDA product insert: warnings, precautions and major adverse reactions ([7]; listed as Trimethoprim): Post marketing experience: QT prolongation resulting in ventricular tachycardia and torsade de pointes; Neurological Effects (from Literature) [7]: Trimethoprim/sulfamethaxazole (TMP-SMX) has been reported to be associated with encephalopathy and psychosis; Neurological side effects [7]: neurological side effects
– | 53.6% | Cc1onc(-c2ccccc2)c1-c1ccc(S(N)(=O)=O)cc1 [valdecoxib] | 17.3 µM | 98% | 2200 nM | – | Neurological Effects (from Literature) [7]: Neuroprotective effect, across bbb

Compound | IC50 [1] | inhibition at 20 µM [3] | IC50 [3] | Protein binding [5] | Cmax [6] | FDA product insert: warnings, precautions and major adverse reactions [7] | other results
C[C@H]1[C@H](NC(=O)/C(=N\OC(C)(C)C(=O)O)c2csc(N)n2)C(=O)N1S(=O)(=O)O [aztreonam] | – | 87.1% | < 5 µM | 56% | 585000 nM | warnings and precautions related to cardiovascular side-effects | FDA product insert: warnings, precautions and major adverse reactions ([7]; listed as Aztreonam): Adverse reaction: Cardiovascular—hypotension, transient ECG changes (ventricular bigeminy and PVC), flushing. Nervous System—seizure, confusion, vertigo, paresthesia, insomnia, dizziness.; Neurological side effects [7]: neurological side effects
O=C1CCc2cc(OCCCCc3nnnn3C3CCCCC3)ccc2N1 [cilostazol] | – | 93.8% | < 5 µM | 95% | 2100 nM | – | Neurological Effects (from Literature) [7]: Cilostazol attenuated blood–brain barrier leakage, Cilostazol (CSZ) was recently found to suppress the progression of cognitive decline in patients with stable AD receiving acetylcholinesterase inhibitors
CC[C@H]1CN2CCc3cc(OC)c(OC)cc3[C@@H]2C[C@@H]1C[C@H]1NCCc2cc(OC)c(OC)cc21 [emetine] | – | 82.7% | < 5 µM | 90% | 600 nM | – | –
C=C1C[C@@H]2[C@H](CC[C@]3(C)C(=O)CC[C@@H]23)[C@@]2(C)C=CC(=O)C=C12 [exemestane] | – | 94.5% | < 5 µM | 90% | 1400 nM | No warnings and precautions regarding to cardiovascular, CNS | –
CCC1=C(C)CN(C(=O)NCCc2ccc(S(=O)(=O)NC(=O)N[C@H]3CC[C@H](C)CC3)cc2)C1=O [glimepiride] | – | 87.7% | < 5 µM | 99% | 1200 nM | No warnings and precautions regarding to cardiovascular, CNS. However, oral hypoglycemic reagents are known to increase cardiovascular mortality which may be due to hypoglycemia incidence. | –
CC(=O)N1CCN(c2ccc(OCC3COC(Cn4ccnc4)(c4ccc(Cl)cc4Cl)O3)cc2)CC1 (stereo not shown) [ketoconazole] | 0.42 µM | 93.4% | < 5 µM | 91% | 1900 nM | – | –
COc1ccc2[nH]c([S+]([O-])Cc3ncc(C)c(OC)c3C)nc2c1 (stereo not shown) [omeprazole] | – | 64.1% | 11.2 µM | 95% | 4200 nM | No warnings and precautions regarding to cardiovascular, CNS | Neurological Effects (from Literature) [7]: Increase the risk of dementia
COc1ccc(Cc2nccc3cc(OC)c(OC)cc23)cc1OC [papaverine] | 4.1 µM | – | – | – | – | – | IC50 [2]: 1.2 µM
C[C@]12C=CC(=O)C=C1CC[C@@H]1[C@@H]2[C@@H](O)C[C@@]2(C)[C@H]1CC[C@]2(O)C(=O)CO [prednisolone] | – | 67.5% | 9.6 µM | 70% | 2900 nM | – | Neurological Effects (from Literature) [7]: Behavirol effects
C=C[C@H]1C[N@@]2CC[C@H]1C[C@H]2[C@H](O)c1ccnc2ccc(OC)cc12 [quinine] | 6.6 µM | 90.6% | < 5 µM | – | – | warnings and precautions related to cardiovascular side-effects | FDA product insert: warnings, precautions and major adverse reactions ([7]; listed as Quinine): Warnings and precautions: QT prolongation and ventricular arrhythmias. Avoid concomitant use with drugs known to prolong QT interval.
